Assay results: ChEMBL document CHEMBL1221301, “SAR studies of non-zinc-chelating MMP-13 inhibitors: improving selectivity and metabolic stability” (Bioorg Med Chem Lett, 2010)

How the values were obtained:
[1] = Selectivity ratio of IC50 for MMP8 to IC50 for MMP13
[2] = Selectivity ratio of IC50 for MMP10 to IC50 for MMP13
Collagenase 3 = Collagenase 3 (Homo sapiens, UniProt P45452)
[3] = Selectivity ratio of IC50 for MMP2 to IC50 for MMP13
[4] = Selectivity ratio of IC50 for MMP3 to IC50 for MMP13
Liver microsomes = assay: Metabolic stability in human liver microsomes; type: ADME, Microsome
[5] = Aqueous solubility of the compound at pH 4.5; type: physicochemical; settings: aqueous medium
[6] = Half life in rat at 1 mg/kg, iv; type: ADME, organism-based; design: dose 1 mg/kg, route intravenous; settings: in vivo
[7] = Aqueous solubility of the compound at pH 7.4; type: physicochemical; settings: aqueous medium
Rattus norvegicus = assay: Clearance in rat as % of liver blood flow at 1 mg/kg, iv; type: ADME, organism-based; design: dose 1 mg/kg, route intravenous; settings: in vivo
[8] = Volume of distribution at steady state in rat at 1 mg/kg, iv; type: ADME, organism-based; design: dose 1 mg/kg, route intravenous; settings: in vivo, read-out: Vdss

SMILES	Ratio IC50 [1]	Ratio IC50 [2]	IC50 (Collagenase 3) [nM]	Ratio IC50 [3]	Ratio IC50 [4]	Stability (Liver microsomes) [%]	solubility [5] [µg/mL]	half-life [6] [min]	solubility [7] [µg/mL]	Fraction of Liver Blood Flow (Rattus norvegicus) [%]	Vd [8] [L/kg]
CNC(=O)[C@H](NC(=O)c1ccc(-c2cccc(CNC(=O)c3ccncc3)c2)o1)C1CCCCC1	> 660	4	31	310	–	–	–	–	–	–	–
CNC(=O)[C@H](NC(=O)c1ccc(-c2cccc(CNC(=O)c3cn4cccc(C)c4n3)c2)o1)C1CCCCC1	> 45	29	110	> 45	> 45	–	–	–	–	–	–
CNC(=O)[C@@H](NC(=O)c1ccc(-c2cccc(CNC(=O)c3cccc(C(F)(F)F)n3)c2)o1)C(C)(C)O	> 810	440	25	> 770	> 400	62	–	–	–	–	–
CNC(=O)[C@H](NC(=O)c1ccc(-c2cccc(CNC(=O)c3csc(C)n3)c2)o1)C1CCCCC1	1800	7	8	310	–	–	–	–	–	–	–
CNC(=O)[C@H](NC(=O)c1ccc(-c2cccc(CNC(=O)c3ccn(C)n3)c2)o1)C1CCCCC1	> 820	14	24	> 430	33	–	–	–	–	–	–
CNC(=O)[C@@H](NC(=O)c1ccc(-c2cccc(CNC(=O)c3ccnc(C(F)(F)F)n3)c2)o1)C(C)C	> 2100	50	9	850	200	70	–	–	–	–	–
CNC(=O)[C@H](NC(=O)c1ccc(-c2cccc(CNC(=O)c3ccoc3C)c2)o1)C1CCCCC1	> 61	8	330	> 61	9	–	–	–	–	–	–
CNC(=O)[C@H](NC(=O)c1ccc(-c2cccc(CNC(=O)c3nccn3C)c2)o1)C1CCCCC1	> 64	9	310	> 64	> 64	–	–	–	–	–	–
CNC(=O)[C@H](NC(=O)c1ccc(-c2cccc(CNC(=O)c3cccc(C)n3)c2)o1)C1CCCCC1	> 4900	87	4	> 4900	240	–	–	–	–	–	–
CNC(=O)[C@H](NC(=O)c1ccc(-c2cccc(CNC(=O)c3cccc(C(F)(F)F)n3)c2)o1)C1CCCCC1	> 2300	> 2300	9	> 2300	> 2300	81	–	–	–	–	–
CNC(=O)[C@H](NC(=O)c1ccc(-c2cccc(CNC(=O)c3cn4ccc(C)cc4n3)c2)o1)C1CCCCC1	> 37	32	140	> 37	> 37	–	–	–	–	–	–
CNC(=O)[C@H](NC(=O)c1ccc(-c2cccc(CNC(=O)c3ccnc(C(F)(F)F)n3)c2)o1)C1CCCCC1	> 2800	370	7	> 2800	> 2800	66	–	–	–	–	–
CNC(=O)[C@H](NC(=O)c1ccc(-c2cccc(CNC(=O)c3ccncn3)c2)o1)C1CCCCC1	> 2000	9	10	290	–	–	–	–	–	–	–
CNC(=O)[C@H](NC(=O)c1ccc(-c2cccc(CNC(=O)c3cccnc3)c2)o1)C1CCCCC1	48	7	42	> 480	–	–	–	–	–	–	–
CNC(=O)[C@H](NC(=O)c1ccc(-c2cccc(CNC(=O)c3ccnc(Cl)n3)c2)o1)C1CCCCC1	> 7100	27	3	590	–	–	–	–	–	–	–
CNC(=O)[C@H](NC(=O)c1ccc(-c2cccc(CNC(C)=O)c2)o1)C1CCCCC1	> 7	0.5	3300	5	3	–	–	–	–	–	–
CNC(=O)[C@H](NC(=O)c1ccc(-c2cccc(CNC(=O)c3ccco3)c2)o1)C1CCCCC1	> 270	6	75	> 270	15	–	–	–	–	–	–
CNC(=O)[C@@H](NC(=O)c1ccc(-c2cccc(CNC(=O)c3ccnc(C(F)(F)F)n3)c2)o1)C1CCOCC1	> 11000	100	–	640	250	24	–	–	–	–	–
CNC(=O)[C@@H](NC(=O)c1ccc(-c2cccc(CNC(=O)c3cccc(C(F)(F)F)n3)c2)o1)C1CCOCC1	7100	130	–	1500	330	83	–	–	–	–	–
CNC(=O)[C@H](NC(=O)c1ccc(-c2cccc(CNC(=O)c3cc(C)n(C)n3)c2)o1)C1CCCCC1	> 280	19	72	> 280	51	–	–	–	–	–	–
CNC(=O)[C@@H](NC(=O)c1ccc(-c2cccc(CNC(=O)c3cccc(C(F)(F)F)n3)c2)o1)C(C)C	> 3600	260	6	> 3600	1000	88	–	–	–	–	–
CNC(=O)[C@H](NC(=O)c1ccc(-c2cccc(CNC(=O)c3occc3C)c2)o1)C1CCCCC1	> 110	17	180	> 110	> 110	–	–	–	–	–	–
CNC(=O)[C@@H](NC(=O)c1ccc(-c2cccc(CNC(=O)c3ccnc(C(F)(F)F)n3)c2)o1)C(C)(C)O	–	–	–	–	–	14	> 50	57	> 50	26	0.9
CNC(=O)[C@@H](NC(=O)c1ccc(-c2cccc(CNC(=O)c3cccc(C(F)(F)F)n3)c2)o1)C1CC1	–	–	–	–	–	60	–	–	–	–	–
CCc1cncc(C(=O)NCc2cccc(-c3ccc(C(=O)N[C@@H](C(=O)NC)C4CCCCC4)o3)c2)c1	> 170	45	29	> 170	> 170	–	–	–	–	–	–
CNC(=O)[C@H](NC(=O)c1ccc(-c2cccc(CNC(=O)c3ncccc3C)c2)o1)C1CCCCC1	> 200	31	100	> 200	85	–	–	–	–	–	–
CNC(=O)[C@@H](NC(=O)c1ccc(-c2cccc(CNC(=O)c3ccnc(C(F)(F)F)n3)c2)o1)C1CC1	> 560	170	36	580	540	69	–	42	–	47	1.2
CNC(=O)[C@H](NC(=O)c1ccc(-c2cccc(CNC(=O)c3ccccn3)c2)o1)C1CCCCC1	> 2400	65	8	> 2400	200	–	–	–	–	–	–
